Assay results: patent US20100130469A1, “2, 6-NAPHTHRIDINE DERIVATIVES” (priority 2007, published 2010)

Legend:
PKCη = molecular target: T1, PKCη (Homo sapiens, UniProt P24723); assay: Protein Kinase Cη assay; format: biochemical; details: human recombinant PKCη
T1 construct: purchased PanVera
Method: (§1) The compounds of the invention are tested for their activity on different PKC isotypes according to the following method. Assay is performed in a white with clear bottom 384-well microtiterplate with non-binding surface. The reaction mixture (25 μl) contains 1.5 μM of a tridecapeptide acceptor substrate that mimics the pseudo substrate sequence of PKC a with the Ala→Ser replacement, 10 μM ^33P-ATP, 10 mM Mg(NO3)2, 0.2 mM CaCl2, PKC at a protein concentration varying from 25 to 400 ng/ml (depending on the isotype used), lipid vesicles (containing 30 mol % phosphatidylserine, 5 mol % DAG and 65 mol % phosphatidylcholine) at a final lipid concentration of 0.5 mM, in 20 mM Tris-HCl buffer pH 7.4+0.1% BSA. Incubation is performed for 60 min at room temperature.
Human recombinant PKCη was obtained from PanVera and is used under the assay conditions as described under Section A.1 above.

PKCθ = PKCθ (Homo sapiens, UniProt Q04759); assay: Protein Kinase C θ assay; format: biochemical; details: ratio of IC50 values
Sequence of PKCθ (Q04759 whole entry): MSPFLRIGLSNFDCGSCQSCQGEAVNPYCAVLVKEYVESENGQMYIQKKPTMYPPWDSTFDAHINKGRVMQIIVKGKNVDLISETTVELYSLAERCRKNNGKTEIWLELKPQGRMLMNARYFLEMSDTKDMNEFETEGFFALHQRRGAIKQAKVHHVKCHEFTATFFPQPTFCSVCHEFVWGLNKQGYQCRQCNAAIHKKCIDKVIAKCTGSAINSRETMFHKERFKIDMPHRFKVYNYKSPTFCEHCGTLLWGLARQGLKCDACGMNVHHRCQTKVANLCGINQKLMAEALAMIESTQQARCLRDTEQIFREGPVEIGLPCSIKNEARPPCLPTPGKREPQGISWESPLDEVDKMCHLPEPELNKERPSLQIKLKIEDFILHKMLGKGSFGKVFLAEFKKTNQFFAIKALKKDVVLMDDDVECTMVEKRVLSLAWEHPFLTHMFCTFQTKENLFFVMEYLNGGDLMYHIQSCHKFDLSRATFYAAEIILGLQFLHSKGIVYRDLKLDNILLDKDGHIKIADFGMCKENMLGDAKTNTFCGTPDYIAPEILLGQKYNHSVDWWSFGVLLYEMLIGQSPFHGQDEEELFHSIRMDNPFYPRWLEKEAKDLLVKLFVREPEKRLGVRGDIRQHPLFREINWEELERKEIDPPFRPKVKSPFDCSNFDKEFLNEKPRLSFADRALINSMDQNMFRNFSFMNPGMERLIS
Method: as §1
Human recombinant PKCθ is used under the assay conditions as described above.

PKCβ1 = molecular target: T2, PKCβ1 (Homo sapiens, UniProt P05771); assay: Protein Kinase Cβ1 assay; format: biochemical; details: ratio of IC50 values
T2 construct: purchased Oxford Biomedical Research
T2 sequence (P05771 whole entry): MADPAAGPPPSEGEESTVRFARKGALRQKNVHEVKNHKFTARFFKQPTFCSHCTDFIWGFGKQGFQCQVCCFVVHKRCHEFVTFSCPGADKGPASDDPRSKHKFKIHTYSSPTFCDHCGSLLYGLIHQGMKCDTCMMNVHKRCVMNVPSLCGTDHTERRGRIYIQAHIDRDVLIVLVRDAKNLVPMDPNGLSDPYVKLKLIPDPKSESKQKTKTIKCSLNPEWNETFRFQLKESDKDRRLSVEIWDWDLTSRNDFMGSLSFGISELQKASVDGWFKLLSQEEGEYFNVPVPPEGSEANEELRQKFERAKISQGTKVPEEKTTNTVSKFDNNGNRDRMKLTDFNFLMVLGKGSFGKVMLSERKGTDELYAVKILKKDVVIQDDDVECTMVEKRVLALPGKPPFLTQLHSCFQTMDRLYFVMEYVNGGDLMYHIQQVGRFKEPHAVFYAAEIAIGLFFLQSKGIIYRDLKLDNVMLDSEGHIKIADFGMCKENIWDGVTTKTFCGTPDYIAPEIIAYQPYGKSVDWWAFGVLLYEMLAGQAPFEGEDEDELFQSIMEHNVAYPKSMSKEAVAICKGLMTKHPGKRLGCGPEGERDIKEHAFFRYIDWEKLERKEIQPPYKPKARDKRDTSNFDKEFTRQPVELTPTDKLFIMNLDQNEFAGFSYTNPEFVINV
Method: as §1
Human recombinant PKCβ1 was obtained from Oxford Biomedical Research and is used under the assay conditions as described under Section A.1 above.

PKCα = molecular target: T3, PKCα (Homo sapiens, UniProt P17252); assay: Protein Kinase Cα assay; format: biochemical; details: ratio of IC50 values
T3 construct: purchased Oxford Biomedical Research
Method: as §1
Human recombinant PKCα was obtained from Oxford Biomedical Research and is used under the assay conditions as described under Section A.1 above.

[1] = system: Bone marrow cells from CBA mice; assay: Bone Marrow Cell Proliferation (BM) assay; format: cell-based; details: mouse cells
Method: Bone marrow cells from CBA mice (2.5×10^4 cells per well in flat bottom tissue culture microtiter plates) are incubated in 100 μL RPMI medium containing 10% FCS, 100 U/mL penicillin, 100 μg/mL streptomycin (Gibco BRL, Baselm Switzerland), 50 μM 2-mercaptoethanol (Fluka, Buchs, Switzerland), WEHI-3 conditioned medium (7.5% v/v) and L929 conditioned medium (3% v/v) as a source of growth factors and serially diluted compounds. Seven three-fold dilution steps in duplicates per test compounds are performed. After four days of incubation 1 μCi ^3H-thymidine is added. Cells are harvested after an additional five-hour incubation period, and incorporated ^3H-thymidine is determined according to standard procedures. Conditioned media are prepared as follows. WEHI-3 cells (ATCC TIB68) and L929 cells (ATCC CCL 1) are grown in RPMI medium until confluence for 4 days and one week, respectively. Cells are harvested, resuspended in the same culture flasks in medium C containing 1% FCS (Schreier and Tess 1981) for WEHI-3 cells and RPMI medium for L929 cells and incubated for 2 days (WEHI-3) or one week (L929). The supernatant is collected, filtered through 0.2 μm and stored in aliquots at −80° C. Cultures without test compounds and without WEHI-3 and L929 supernatants are used as low control values. Low control values are substracted from all values. […]

PKCδ = molecular target: T4, PKCδ (Homo sapiens, UniProt Q05655); assay: Protein Kinase Cδ assay; format: biochemical; details: ratio of IC50 values
T4 construct: purchased Oxford Biomedical Research
T4 sequence (Q05655 whole entry): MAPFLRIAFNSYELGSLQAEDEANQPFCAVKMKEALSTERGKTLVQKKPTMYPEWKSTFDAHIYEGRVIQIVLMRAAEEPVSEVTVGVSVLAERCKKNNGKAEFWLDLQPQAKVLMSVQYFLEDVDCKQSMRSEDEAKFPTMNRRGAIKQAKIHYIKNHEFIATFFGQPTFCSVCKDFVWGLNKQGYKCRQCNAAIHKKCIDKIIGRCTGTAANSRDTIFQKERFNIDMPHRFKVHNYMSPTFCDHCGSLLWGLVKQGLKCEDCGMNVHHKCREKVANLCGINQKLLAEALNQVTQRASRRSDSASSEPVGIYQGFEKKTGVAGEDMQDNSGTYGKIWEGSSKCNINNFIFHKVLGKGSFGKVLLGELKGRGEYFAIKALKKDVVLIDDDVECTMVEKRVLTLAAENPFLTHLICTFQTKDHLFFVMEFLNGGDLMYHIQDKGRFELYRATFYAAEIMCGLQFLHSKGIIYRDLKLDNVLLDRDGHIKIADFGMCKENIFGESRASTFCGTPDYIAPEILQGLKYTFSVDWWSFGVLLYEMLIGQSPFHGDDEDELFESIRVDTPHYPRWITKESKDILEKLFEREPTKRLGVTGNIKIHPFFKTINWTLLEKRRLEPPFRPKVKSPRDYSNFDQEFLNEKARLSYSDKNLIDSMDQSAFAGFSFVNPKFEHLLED
Method: as §1
Human recombinant PKC was obtained from Oxford Biomedical Research and is used under the assay conditions as described under Section A.1 above.

PKCε = molecular target: T5, PKCε (Homo sapiens, UniProt Q02156); assay: Protein Kinase Cε assay; format: biochemical; details: ratio of IC50 values
T5 construct: purchased Oxford Biomedical Research
T5 sequence (Q02156 1-737): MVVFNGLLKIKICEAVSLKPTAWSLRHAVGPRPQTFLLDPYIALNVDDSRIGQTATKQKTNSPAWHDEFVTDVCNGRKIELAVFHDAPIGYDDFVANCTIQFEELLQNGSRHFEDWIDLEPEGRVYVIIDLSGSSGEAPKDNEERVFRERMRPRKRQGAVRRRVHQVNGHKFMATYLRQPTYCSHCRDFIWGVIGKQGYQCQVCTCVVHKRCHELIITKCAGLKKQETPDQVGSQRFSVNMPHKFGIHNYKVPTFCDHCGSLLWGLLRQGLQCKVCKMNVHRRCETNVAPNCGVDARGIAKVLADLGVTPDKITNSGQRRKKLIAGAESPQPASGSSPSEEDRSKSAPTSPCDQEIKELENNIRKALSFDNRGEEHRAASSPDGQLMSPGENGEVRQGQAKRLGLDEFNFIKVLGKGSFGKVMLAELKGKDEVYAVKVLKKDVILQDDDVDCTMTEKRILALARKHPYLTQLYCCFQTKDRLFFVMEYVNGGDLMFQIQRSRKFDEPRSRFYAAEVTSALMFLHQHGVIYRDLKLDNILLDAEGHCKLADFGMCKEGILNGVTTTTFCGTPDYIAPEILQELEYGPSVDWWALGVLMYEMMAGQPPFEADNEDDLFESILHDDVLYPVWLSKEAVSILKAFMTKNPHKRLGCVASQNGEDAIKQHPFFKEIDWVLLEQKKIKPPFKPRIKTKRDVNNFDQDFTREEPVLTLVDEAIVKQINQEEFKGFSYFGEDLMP
Method: as §1
Human recombinant PKCη was obtained from Oxford Biomedical Research and is used under the assay conditions as described under Section A.1 above.

T1 sequence (P24723 whole entry): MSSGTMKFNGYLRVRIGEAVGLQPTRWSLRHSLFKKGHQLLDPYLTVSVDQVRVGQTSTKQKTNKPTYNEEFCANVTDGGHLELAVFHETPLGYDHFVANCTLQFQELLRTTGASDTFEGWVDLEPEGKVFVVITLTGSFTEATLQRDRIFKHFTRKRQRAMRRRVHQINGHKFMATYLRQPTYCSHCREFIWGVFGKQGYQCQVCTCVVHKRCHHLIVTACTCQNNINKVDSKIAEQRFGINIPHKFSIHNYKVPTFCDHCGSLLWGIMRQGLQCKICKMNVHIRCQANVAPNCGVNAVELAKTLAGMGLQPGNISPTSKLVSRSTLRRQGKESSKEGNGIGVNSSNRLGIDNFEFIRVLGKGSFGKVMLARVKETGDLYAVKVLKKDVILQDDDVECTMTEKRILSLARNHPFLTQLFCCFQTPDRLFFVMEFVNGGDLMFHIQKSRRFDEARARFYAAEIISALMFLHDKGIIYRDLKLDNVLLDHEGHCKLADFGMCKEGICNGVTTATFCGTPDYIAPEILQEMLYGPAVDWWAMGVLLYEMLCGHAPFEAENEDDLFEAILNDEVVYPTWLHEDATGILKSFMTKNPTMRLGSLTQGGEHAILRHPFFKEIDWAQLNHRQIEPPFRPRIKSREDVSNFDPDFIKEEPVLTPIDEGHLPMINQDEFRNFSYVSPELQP

Compound `CC(C)(N)COc1nc(-c2ccncc2)cc2cnccc12` [Example 81, 1,1-Dimethyl-2-(3-pyridin-4-yl-[2,6]naphthyridin-1-yloxy)-ethylamine] has an IC50 (PKCη) of 162 nM.

In the case of `C[C@@H]1CN(c2nc(-c3ccncc3)cc3cnccc23)[C@@H](C)CN1` (racemic) [Example 23, Rac-1-((2S,5R)-2,5-Dimethyl-piperazin-1-yl)-3-pyridin-4-yl-[2,6]naphthyridine], the “θ/η: ratio of the IC50 value for PKCθ to the IC50 value for PKCη” value (PKCθ) is reported as 26, the “β/η: ratio of the IC50 value for PKC β to the IC50 value for PKCη” value (PKCβ1) is reported as 14 and the “α/η: ratio of the IC50 value for PKCα to the IC50 value for PKCη” value (PKCα) is reported as 17. For the same compound, the “BM/MLR: ratio of IC50 values of BM assay and MLR assay” value [1] was 24, the “δ/η: ratio of the IC50 value for PKCδ to the IC50 value for PKCη” value (PKCδ) was 15 and the “ε/η: ratio of the IC50 value for PKCε to the IC50 value for PKCη” value (PKCε) was 1.

Work on `CC(C)(N)CNc1cc(-c2ccncc2)cc2cnccc12` [Example 83, 2-Methyl-N*1*-(7-pyridin-4-yl-isoquinolin-5-yl)-propane-1,2-diamine] yielded an IC50 (PKCη) of 54 nM.

With `C[C@H](N)CNc1nc(-c2ccncc2)cc2cnccc12` [Example 71a, (S)—N*1*-(3-Pyridin-4-yl-[2,6]naphthyridin-1-yl)-propane-1,2-diamine] the “θ/η: ratio of the IC50 value for PKCθ to the IC50 value for PKCη” value (PKCθ) was 30, the “β/η: ratio of the IC50 value for PKC β to the IC50 value for PKCη” value (PKCβ1) was 196 and the “α/η: ratio of the IC50 value for PKCα to the IC50 value for PKCη” value (PKCα) was 506. For the same compound, the “BM/MLR: ratio of IC50 values of BM assay and MLR assay” value [1] was 30, the “δ/η: ratio of the IC50 value for PKCδ to the IC50 value for PKCη” value (PKCδ) was 4 and the “ε/η: ratio of the IC50 value for PKCε to the IC50 value for PKCη” value (PKCε) was 3.
